Test results reported in patent US9655884B2, “Antiparasitic use of isoxazoline compounds” (Intervet Inc., priority 2013, dated 2017).

Experiment: Adverse events in treated dogs following administration
Assay type: in vivo
Conditions: chewable tablet (Bravecto), close to 25 mg/kg body weight oral
Description: Twenty healthy male and female mixed-breed dogs ≧12 weeks old were housed in individual pens. Ten dogs per group were randomly assigned to receive either a fluralaner chewable tablet (Bravecto™) or no treatment. Each pen contained the bottom half of a dog carrier lined with carpet as bedding. Before treatment, each dog was infested twice (28 and 21 days pretreatment) with 100 adult, unfed C. felis to establish a flea population prior to treatment on each dog. Flea media was added to the carpet 4 weeks before the treatment date and weekly thereafter for the remainder of the study to encourage development of an active, developing population of juvenile flea stages in each pen. On the treatment day, dogs in the treated group received fluralaner at a dose close to 25 mg/kg body weight by oral administration. The chewable tablet(s) were administered by placement in the back of the oral cavity over the tongue to initiate swallowing. Dogs in the negative control group remained untreated.

Cc1cc(C2=NOC(c3cc(Cl)cc(Cl)c3)(C(F)(F)F)C2)ccc1C(=O)NCC(=O)NCC(F)(F)F (stereo not shown) [fluralaner, 4-[5-(3,5-Dichlorophenyl)-5-trifluoromethyl-4,5-dihydroisoxazol-3-yl]-2-methyl-N-[(2,2,2-trifluoro-ethylcarbamoyl)-methyl]-benzamide]
Adverse events: No adverse events were observed
